We go through 48 molecules from patent US5942532A, “2-substituted phenyl-benzimidazole antibacterial agents” (Ortho Pharmaceutical Corporation, priority 1997, dated 1999).

One assay has as its target T1, Kinase A and Spo0F (Bacillus subtilis, UniProt P16497).
T1 construct: made in house; host or cells: recombinant E. coli
T1 sequence (P16497 1-606): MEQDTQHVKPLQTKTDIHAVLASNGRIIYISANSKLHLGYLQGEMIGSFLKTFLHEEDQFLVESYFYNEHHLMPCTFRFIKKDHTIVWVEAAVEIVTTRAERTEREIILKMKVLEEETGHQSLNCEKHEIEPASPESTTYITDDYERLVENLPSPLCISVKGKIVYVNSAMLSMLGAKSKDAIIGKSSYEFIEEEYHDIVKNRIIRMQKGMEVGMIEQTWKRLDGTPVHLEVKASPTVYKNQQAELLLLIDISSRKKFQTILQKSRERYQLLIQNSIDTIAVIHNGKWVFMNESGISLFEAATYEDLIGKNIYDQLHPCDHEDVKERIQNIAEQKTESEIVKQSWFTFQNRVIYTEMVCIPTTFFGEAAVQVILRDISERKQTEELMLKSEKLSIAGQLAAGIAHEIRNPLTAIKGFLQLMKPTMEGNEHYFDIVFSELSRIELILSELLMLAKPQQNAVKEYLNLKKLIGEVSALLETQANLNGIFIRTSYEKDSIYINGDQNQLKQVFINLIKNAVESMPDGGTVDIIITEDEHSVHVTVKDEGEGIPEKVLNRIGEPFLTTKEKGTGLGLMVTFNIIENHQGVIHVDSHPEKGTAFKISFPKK
The assay can be described thus: Autophosphorylation of Kinase A and Transphosphorylation of Spo0F Assay (HPK in vitro assay). It is filed as biochemical. To be noted: Table 1, KinA/Spo0F phosphorylation, in µM. The method, then: Autophosphorylation of Kinase A and Transphosphorylation of Spo0F Assay
To study the effect of the compounds of the present invention on the signal transduction process in bacteria, the inhibiting effect of the compounds on the sporulation operon proteins Kinase A and Spo0F was examined. Specifically, the inhibition of autophosphorylation of Kinase A and the transphosphorylation of Spo0F was determined in the following assays. The Spo0F response regulator is the primary substrate for phosphorylation by the protein kinase, Kin A, involved in the sporulation process in bacteria. See D. Burbulys, K. A. Trach, J. A. Hoch, Cell, 64, 545-552 (1991). Spo0F and KinA were prepared from recombinant E. coli overexpressing the proteins (J. Cavanagh et al, Amino Acids, 6, 131-140 (1994) and references therein).
The following stock reagents were either prepared and used promptly or stored at the indicated temperature:
8×Salts: 2 M KCl (5 mL), 1 M MgCl2 (800 mL), 1 M CaCl2 (100 mL), 10 mg/mL phenylmethylsulfonyl fluoride (200 mL), 1 M dithioreitol (50 mL), 0.25 M Na2 EDTA (32 mL) and H2 O 3.82 mL (-20° C.)
5×Loading Dye: 0.5M TRIS-HCl, pH 6.8 (7.5 mL), 10% SDS (2 mL) 0.1% bromophenol blue (0.5 mL), 100% glycerol (3 mL) and 12.5 M 2-mercaptoethanol (0.3 mL)
1-1.3 mg/mL KinA: 15 mM TRIS-HCl, pH 8.0, 6 mM KCl; 4 mM 2-mercaptoethanol;40% glycerol (-20° C.)
1 mg/mL Spo0F: 17.5 mM TRIS-HCl, pH 8.0; 0.7 mM KCl; 0.7 mM MgCl2; 0.7 mM CaCl2; 5 mM 2-mercaptoethanol; 30% glycerol (-20° C.)
5% Stacking Gel: 40% 29:1 acrylamide:bis acrylamide (1.25 mL), 0.5 M TRIS-HCl, pH 6.8 (2.5 mL), 10% SDS (0.1 mL), D-H2 O (6.15 mL) 10% ammonium persulfate (100 mL) and TEMED (25 mL)
SDS Running Buffer: TRIS-BASE (3.02 g), glycine (14.4 g), SDS (1 g), D-H2 O (to 1 L)
The reaction mixture was prepared from 8×Salts (87 μL), 1M TRIS, pH 8 (118 μL), 50% glycerol (63 μL), Spo0F (14.1 μL) and KinA (7.0 μL). Microcentrifuge tubes were charged with the reaction mixture (18.5 μL) and a 1.0 mM solution of the test compound in 5% DMSO (18.5 μL), and incubated for 15 min on ice. 100 mM ATP solution (3.0 μl, containing 625 μCi [^32 P]ATP) was added, and the mixture left for 10 minutes at room temperature. The reaction was quenched with 5× loading dye (10 μL per tube) and the samples were loaded on a prepared 5% Stacking Gel, or stored on dry ice until ready for use. The prepared wells were filled with SDS Running Buffer, samples were loaded into the wells, and 80 volts were applied to the gel until the dye front reached the bottom of the stacking gel. The voltage was then increased to 250 volts until electrophoresis was complete. Radioactive bands in the gel corresponding to phosphorylated KinA and Spo0F were imaged and quantitated with a phosphoimager.
If either enzyme was inhibited (as evidenced by the absence of labelled protein in the developed gel), an IC50 was calculated by running the assay with a range of inhibitor concentrations from 1 to 500 μM. After electrophoresis of the reaction mixtures, percent inhibition was determined by measuring the concentration of radioactive phosphorus with a phosphoimager and calculating the values using a software program (BioRad Molecular Analyst).
For `N=C(N)c1ccc2nc(-c3ccc(OCc4ccccc4)cc3)[nH]c2c1` [Example 15], the IC50 stood at 60.8.

`CCN(CC)c1ccc(-c2nc3ccc(C(=N)N)cc3[nH]2)c(O)c1` [Example 38] gave an IC50 of 51.

The molecule `N=C(N)c1ccc2nc(-c3cc(C(F)(F)F)cc(C(F)(F)F)c3)[nH]c2c1` [Example 7] yielded an IC50 of 30.8.

In turn, `N=C(N)c1ccc2nc(-c3cc(OCc4ccccc4)cc(OCc4ccccc4)c3)[nH]c2c1` [Example 6] showed an IC50 of 15.9.

As for `N#CCCN(CCC#N)c1ccc(-c2nc3ccc(C(=N)N)cc3[nH]2)cc1` [Example 25], the IC50 came out at 35.6.

As to `N=C(N)c1ccc2nc(-c3ccc(F)cc3)[nH]c2c1` [Example 17], the IC50 is on record as 480.

`N=C(N)c1ccc2nc(-c3ccc(NCc4ccccc4)cc3)[nH]c2c1` [Example 22] gave an IC50 of 222.

The molecule `CC(C)(C)c1cc(-c2nc3ccc(C(=N)N)cc3[nH]2)c(OCC(=O)O)c(C(C)(C)C)c1` [Example 42] showed an IC50 of 199.

Molecule `CC(C)(C)c1cc(-c2nc3ccc(C(=N)N)cc3[nH]2)c(O)c(C(C)(C)C)c1` [Example 30] showed an IC50 of 8.5.

On to `N=C(N)c1ccc2nc(-c3ccc(OCc4ccc([N+](=O)[O-])cc4)cc3)[nH]c2c1` [Example 11], for which the IC50 is on record as 19.4.

Regarding `N=C(N)c1ccc2nc(-c3ccc(Oc4c([N+](=O)[O-])cc(C(F)(F)F)cc4[N+](=O)[O-])cc3)[nH]c2c1` [Example 45], the IC50 amounted to 28.

The molecule `CC(C)(C)c1csc(-c2ccc(-c3nc4ccc(C(=N)N)cc4[nH]3)cc2)n1` [Example 43] returned an IC50 of 40.2.

`CCC(C)(C)c1ccc(-c2nc3ccc(C(=N)N)cc3[nH]2)cc1` [Example 8] displayed an IC50 of 37.6.

`N=C(N)c1ccc2nc(-c3ccc(C(F)(F)F)cc3)[nH]c2c1` [Example 3] had an IC50 of 169.

For the molecule `N=C(N)c1ccc2nc(-c3cc(Br)cc(Br)c3O)[nH]c2c1` [Example 32], the IC50 was 51.1.

In the case of `CCCCN(CCCC)c1ccc(-c2nc3ccc(C(=N)N)cc3[nH]2)cc1` [Example 14], the IC50 was found to be 35.5.

`N=C(N)c1ccc2nc(-c3cc(Cl)cc(Cl)c3)[nH]c2c1` [Example 19]: the IC50 was found to be 100.

In turn, `N=C(N)c1ccc2nc(-c3cc([N+](=O)[O-])cc([N+](=O)[O-])c3O)[nH]c2c1` [Example 33] gave an IC50 of 74.7.

The molecule `N=C(N)c1ccc2nc(-c3cc([N+](=O)[O-])cc(Br)c3O)[nH]c2c1` [Example 40] registered an IC50 of 199.

As for `CC(C)(C)c1cc(-c2nc3ccc(C(=N)N)cc3[nH]2)ccc1O` [Example 23], the IC50 is recorded as 22.

As for `COc1cc(Br)c(O)c(-c2nc3ccc(C(=N)N)cc3[nH]2)c1` [Example 37], the IC50 is recorded as 171.

`CCCCCCCCCCOc1ccc(-c2nc3ccc(C(=N)N)cc3[nH]2)cc1OCCCCCCCCCC` [Example 12] came in with an IC50 of 8.3.

The assay is the same for the next values; noted with them: Table 1, KinA/Spo0F phosphorylation, read-out: IC50.
Regarding `CC(C)c1ccc(-c2nc3ccc(C(=N)N)cc3[nH]2)cc1` [Example 4], the IC50 stood at 219 µM.

Still in this assay, the particulars now being: Table 2, KinA/Spo0F phosphorylation, in µM.
As to `Cn1c(-c2ccc(Oc3ccccc3)cc2)nc2ccc(C(=N)N)cc21` [Example 46], the IC50 is recorded as 44.

`COc1cc(Oc2ccc(-c3nc4ccc(C(=N)N)cc4[nH]3)cc2)cc(OC)c1OC` [Example 53] showed an IC50 of 28.7.

`N=C(N)c1ccc2nc(-c3ccc(Oc4ccc(N)cc4)cc3)[nH]c2c1` [Example 51]: the IC50 was determined as 140.6.

The molecule `N=C(N)c1ccc2[nH]c(-c3ccc(Oc4ccc(N)c(N)c4)cc3)nc2c1` [Example 58] displayed an IC50 of 31.5.

`N=C(N)c1ccc2nc(-c3ccc(Oc4ccc([N+](=O)[O-])cc4)cc3)[nH]c2c1` [Example 50]: the IC50 was found to be 31.7.

Turning to `N=C(N)c1ccc2[nH]c(-c3ccc(Oc4ccc(Cl)cc4)cc3)nc2c1` [Example 59], the IC50 worked out at 13.9.

`CCOC(=O)c1ccc(Oc2ccc(-c3nc4ccc(C(=N)N)cc4[nH]3)cc2)cc1` [Example 52] gave an IC50 of 56.

Molecule `CC(C)(C)c1ccc(Oc2ccc(-c3nc4ccc(C(=N)N)cc4[nH]3)cc2)cc1` [Example 56] came in with an IC50 of 66.5.

Staying with this assay, now noted: Table 3, KinA/Spo0F phosphorylation, read-out: IC50.
Regarding `N=C(N)c1ccc2[nH]c(-c3cccc(Oc4ccc(Cl)cc4)c3)nc2c1` [Example 69], the IC50 is recorded as 28 µM.

For the molecule `Cc1ccc(Oc2cccc(-c3nc4cc(C(=N)N)ccc4[nH]3)c2)cc1` [Example 65], the IC50 came to 33 µM.

For the molecule `N=C(N)c1ccc2[nH]c(-c3cccc(Oc4cccc(C(F)(F)F)c4)c3)nc2c1` [Example 64], the IC50 is on record as 48 µM.

Take `CC(C)(C)c1ccc(Oc2cccc(-c3nc4cc(C(=N)N)ccc4[nH]3)c2)cc1` [Example 68]: the IC50 is reported as 31.6 µM.

Regarding `N=C(N)c1ccc2[nH]c(-c3cccc(Oc4cc(Cl)cc(Cl)c4)c3)nc2c1` [Example 66], the IC50 is given as 32 µM.

The same assay, now with this note: Table 4, KinA/Spo0F phosphorylation, read-out: IC50.
In the case of `N=C(N)c1ccc2nc(-c3cc4c5c(c3)CCCN5CCC4)[nH]c2c1` [Example 76], the IC50 was determined as 85 µM.

On to `N=C(N)c1ccc2nc(-c3cc4c5c(c3O)CCCN5CCC4)[nH]c2c1` [Example 77], for which the IC50 is given as 18.5 µM.

Take `N=C(N)c1ccc2nc(-c3ccc4ccccc4c3O)[nH]c2c1` [Example 75]: the IC50 came out at 127 µM.

Regarding `CN1c2ccccc2C(C)(C)C12C=Cc1cc(-c3nc4ccc(C(=N)N)cc4[nH]3)ccc1O2` (stereo not drawn) [Example 78], the IC50 turned out to be 114 µM.

Turning to `N=C(N)c1ccc2nc(-c3ccc4oc5ccccc5c4c3)[nH]c2c1` [Example 71], the IC50 is 17.3 µM.

Take `CCn1c2ccccc2c2ccc(-c3nc4ccc(C(=N)N)cc4[nH]3)cc21` [Example 73]: the IC50 worked out at 22.0 µM.

The same assay, now with this note: Table 5, KinA/Spo0F phosphorylation, in µM.
Take `N=C(N)Cn1c(-c2ccc(N(c3ccccc3)c3ccccc3)cc2)nc2ccc(C(=N)N)cc21` [Example 82]: the IC50 is 22.

`N=C(N)c1ccc2nc(-c3ccc(N4CCN(c5ccccc5)CC4)cc3)[nH]c2c1` [Example 81] came in with an IC50 of 26.

Regarding `N=C(N)c1ccc2nc(-c3ccc(Oc4ccc5[nH]cnc5c4)cc3)[nH]c2c1` [Example 80], the IC50 is recorded as 94.

The assay is the same for the next values; noted with them: Table 6, KinA/Spo0F phosphorylation, in µM.
In the case of `CC(C)(C)c1cc(-c2nc3ccc(C4=NCCCCN4)cc3[nH]2)c(O)c(C(C)(C)C)c1` [Example 87], the IC50 came out at 29.

The molecule `CC(C)(C)c1cc(-c2nc3ccc(C4=NCCN4)cc3[nH]2)c(O)c(C(C)(C)C)c1` [Example 85] registered an IC50 of 4.

Turning to `CC(C)(C)c1cc(-c2nc3ccc(CN)cc3[nH]2)c(O)c(C(C)(C)C)c1` [Example 91], the IC50 is 4.
